Tests used:
surinam grass = test: Test B pre/postemergence surinam grass; format: in vivo, Brachiaria decumbens
Outline: (§1)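 Response is a visual 0-to-10 score relative to untreated plants, where 0 means no effect and 10 means complete control, taken twelve to sixteen days after application. Treatments went onto soil at planting and onto foliage of 1- to 4-leaf plants, using a surfactant-containing non-phytotoxic solvent.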

soybean = test: Test B pre/postemergence soybean; format: in vivo, Glycine max
Outline: as §1

pigweed = test: Test B pre/postemergence pigweed; format: in vivo, Amaranthus retroflexus
Outline: as §1

blackgrass = test: Test B pre/postemergence blackgrass; format: in vivo, Alopecurus myosuroides
Outline: as §1

bamyardgrass = test: Test B flood test barnyardgrass; format: in vivo, Echinochloa crus-galli
Outline: (§2)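 Flood test on plants grown to the 2-leaf stage; treated plants kept in greenhouse twelve to sixteen days, then visually rated against controls on a 0 (no effect) to 10 (complete control) scale.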

sugar beet = test: Test B pre/postemergence sugar beet; format: in vivo, Beta vulgaris
Outline: as §1

rape = test: Test B pre/postemergence rape; format: in vivo, Brassica napus
Outline: as §1

giant foxtail = test: Test B pre/postemergence giant foxtail; format: in vivo, Setaria faberii
Outline: as §1

corn = test: Test B pre/postemergence corn; format: in vivo, Zea mays
Outline: as §1

smallflower flatsedge = test: Test B flood test smallflower flatsedge; format: in vivo, Cyperus difformis
Outline: as §2

duck salad = test: Test B flood test duck salad; format: in vivo, Heteranthera limosa
Outline: as §2

morningglory = test: Test B pre/postemergence morningglory; format: in vivo, Ipomoea hederacea
Outline: as §1

bedstraw = test: Test B pre/postemergence bedstraw; format: in vivo, Galium aparine
Outline: as §1

purple nutsedge = test: Test B pre/postemergence purple nutsedge; format: in vivo, Cyperus rotundus
Outline: as §1

velvetleaf = test: Test B pre/postemergence velvetleaf; format: in vivo, Abutilon theophrasti
Outline: as §1

[1] = Postemergence, Rate 62 g/ha, scale 0 to 10, 0 is no effect, 10 is complete control
[2] = Postemergence, Rate 125 g/ha, scale of 0 to 10 where 0 is no effect and 10 is complete control
[3] = Postemergence, Rate 250 g/ha, scale of 0 to 10, 0 is no effect, 10 is complete control
[4] = Postemergence, Rate 500 g/ha, scale of 0 to 10 where 0 is no effect and 10 is complete control
[5] = Preemergence, Rate 62 g/ha, scale of 0 to 10 where 0 is no effect and 10 is complete control
[6] = Preemergence, Rate 125 g/ha, scale of 0 to 10 where 0 is no effect and 10 is complete control
[7] = Preemergence, Rate 250 g/ha, scale 0 to 10 (0 no effect, 10 complete control)
[8] = Preemergence, Rate 500 g/ha, scale of 0 to 10 where 0 is no effect and 10 is complete control
[9] = Rate 62 g/ha, flood test species, Pre-emergence, visual evaluation after twelve to sixteen days
[10] = Rate 125 g/ha, under heading Pre-emergence, flood test species, visual evaluation after twelve to sixteen days
[11] = Rate 250 g/ha, Pre-emergence (flood test species), scale 0 to 10, 0 is no effect, 10 is complete control
[12] = Rate 500 g/ha, Pre-emergence section of Table B, 0 to 10 scale (0 no effect, 10 complete control)

CCCCCn1c(=O)on(C(=O)N(c2ccc(F)cc2F)C(C)C)c1=O [Compound 636]
Plant response rating, B. signalgrass (surinam grass; [1]): 0 | Plant response rating, B. signalgrass (surinam grass; [2]): 0 | B. signalgrass plant response rating (surinam grass; [3]): 0 | Plant response rating, B. signalgrass (surinam grass; [4]): 3 | B. signalgrass plant response rating (surinam grass; [5]): 3 | B. signalgrass plant response rating (surinam grass; [6]): 9 | Plant response rating, B. signalgrass (surinam grass; [7]): 8 | Plant response rating, B. signalgrass (surinam grass; [8]): 9 | Plant response rating, Soybean (soybean; [1]): 2 | Plant response rating, Soybean (soybean; [2]): 2 | Soybean plant response rating (soybean; [3]): 4 | Soybean plant response rating (soybean; [5]): 0 | Soybean plant response rating (soybean; [6]): 0 | Plant response rating, Soybean (soybean; [7]): 0 | Plant response rating, Soybean (soybean; [8]): 4 | Plant response rating, Redroot pigweed (pigweed; [1]): 0 | Plant response rating, Redroot pigweed (pigweed; [2]): 0 | Redroot pigweed plant response rating (pigweed; [3]): 6 | Redroot pigweed plant response rating (pigweed; [5]): 10 | Redroot pigweed plant response rating (pigweed; [6]): 10 | Plant response rating, Redroot pigweed (pigweed; [7]): 10 | Plant response rating, Redroot pigweed (pigweed; [8]): 10 | Plant response rating, Blackgrass (blackgrass; [1]): 0 | Plant response rating, Blackgrass (blackgrass; [2]): 0 | Blackgrass plant response rating (blackgrass; [3]): 3 | Plant response rating, Blackgrass (blackgrass; [4]): 5 | Blackgrass plant response rating (blackgrass; [5]): 2 | Blackgrass plant response rating (blackgrass; [6]): 4 | Plant response rating, Blackgrass (blackgrass; [7]): 4 | Plant response rating, Blackgrass (blackgrass; [8]): 7 | Plant response rating, Barnyardgrass (0 to 10 scale, 0 is no effect, 10 is complete control) (bamyardgrass; [9]): 0 | Barnyardgrass plant response rating (0 to 10 scale, 0 is no effect, 10 is complete control) (bamyardgrass; [10]): 0 | Barnyardgrass plant response rating (bamyardgrass; [11]): 0 | Barnyardgrass plant response rating (bamyardgrass; [12]): 2 | Plant response rating, Sugarbeets (sugar beet; [1]): 2 | Plant response rating, Sugarbeets (sugar beet; [2]): 2 | Sugarbeets plant response rating (sugar beet; [3]): 5 | Sugarbeets plant response rating (sugar beet; [5]): 0 | Sugarbeets plant response rating (sugar beet; [6]): 0 | Plant response rating, Sugarbeets (sugar beet; [7]): 6 | Plant response rating, Sugarbeets (sugar beet; [8]): 7 | Plant response rating, Rape (rape; [1]): 2 | Plant response rating, Rape (rape; [2]): 6 | Rape plant response rating (rape; [3]): 7 | Plant response rating, Rape (rape; [4]): 7 | Rape plant response rating (rape; [5]): 0 | Rape plant response rating (rape; [6]): 2 | Plant response rating, Rape (rape; [7]): 7 | Plant response rating, Rape (rape; [8]): 10 | Plant response rating, Giant foxtail (giant foxtail; [1]): 2 | Plant response rating, Giant foxtail (giant foxtail; [2]): 7 | Giant foxtail plant response rating (giant foxtail; [3]): 9 | Plant response rating, Giant foxtail (giant foxtail; [4]): 9 | Giant foxtail plant response rating (giant foxtail; [5]): 9 | Giant foxtail plant response rating (giant foxtail; [6]): 10 | Plant response rating, Giant foxtail (giant foxtail; [7]): 10 | Plant response rating, Giant foxtail (giant foxtail; [8]): 10 | Plant response rating, Corn (corn; [1]): 2 | Plant response rating, Corn (corn; [2]): 2 | Corn plant response rating (corn; [3]): 2 | Plant response rating, Corn (corn; [4]): 2 | Corn plant response rating (corn; [6]): 0 | Plant response rating, Corn (corn; [7]): 0 | Plant response rating, Corn (corn; [8]): 3 | Plant response rating, S. Flatsedge (0 to 10 scale, 0 is no effect, 10 is complete control) (smallflower flatsedge; [9]): 0 | S. Flatsedge plant response rating (0 to 10 scale, 0 is no effect, 10 is complete control) (smallflower flatsedge; [10]): 0 | S. Flatsedge plant response rating (smallflower flatsedge; [11]): 0 | S. Flatsedge plant response rating (smallflower flatsedge; [12]): 0 | Plant response rating, Ducksalad (0 to 10 scale, 0 is no effect, 10 is complete control) (duck salad; [9]): 0 | Ducksalad plant response rating (0 to 10 scale, 0 is no effect, 10 is complete control) (duck salad; [10]): 0 | Ducksalad plant response rating (duck salad; [11]): 0 | Ducksalad plant response rating (duck salad; [12]): 0 | Plant response rating, Morningglory (morningglory; [1]): 2 | Plant response rating, Morningglory (morningglory; [2]): 2 | Morningglory plant response rating (morningglory; [3]): 6 | Plant response rating, Morningglory (morningglory; [4]): 6 | Morningglory plant response rating (morningglory; [5]): 0 | Morningglory plant response rating (morningglory; [6]): 0 | Plant response rating, Morningglory (morningglory; [7]): 0 | Plant response rating, Morningglory (morningglory; [8]): 2 | Plant response rating, Bedstraw (bedstraw; [1]): 7 | Plant response rating, Bedstraw (bedstraw; [2]): 7 | Bedstraw plant response rating (bedstraw; [3]): 9 | Bedstraw plant response rating (bedstraw; [6]): 5 | Plant response rating, Bedstraw (bedstraw; [7]): 9 | Plant response rating, Bedstraw (bedstraw; [8]): 9 | Plant response rating, Nutsedge (purple nutsedge; [1]): 0 | Plant response rating, Nutsedge (purple nutsedge; [2]): 0 | Nutsedge plant response rating (purple nutsedge; [3]): 0 | Plant response rating, Nutsedge (purple nutsedge; [4]): 0 | Nutsedge plant response rating (purple nutsedge; [5]): 0 | Nutsedge plant response rating (purple nutsedge; [6]): 0 | Plant response rating, Nutsedge (purple nutsedge; [7]): 0 | Plant response rating, Nutsedge (purple nutsedge; [8]): 10 | Plant response rating, Velvetleaf (velvetleaf; [1]): 3 | Plant response rating, Velvetleaf (velvetleaf; [2]): 3 | Velvetleaf plant response rating (velvetleaf; [3]): 3 | Velvetleaf plant response rating (velvetleaf; [5]): 0 | Velvetleaf plant response rating (velvetleaf; [6]): 0 | Plant response rating, Velvetleaf (velvetleaf; [7]): 2 | Plant response rating, Velvetleaf (velvetleaf; [8]): 4

— patent publication US6737383B1, “Herbicidal oxadiazolidines” (priority 1999, dated 2004)
